Results on two molecules are retold here after ChEMBL document CHEMBL5316308, “BET-HDAC Dual Inhibitors for Combinational Treatment of Breast Cancer and Concurrent Candidiasis” (J Med Chem, 2023).

In assay [1] the test system is MDA-MB-231. The experiment in a line: Antiproliferative activity against human MDA-MB-231 cells assessed as cell growth inhibition incubated for 24 hrs by CCK-8 assay. Conditions: MDA-MB-231, 24 h. The format is functional, cell-based.
Assay [2] addresses Bromodomain-containing protein 3 (Homo sapiens, UniProt Q15059). The experiment in a line: Inhibition of recombinant BRD3 BD1 (unknown origin) incubated for 120 mins by TR-FRET assay.
Assay [3] addresses Bromodomain-containing protein 4 (Homo sapiens, UniProt O60885). The assay is described as follows: Inhibition of recombinant BRD4 (unknown origin) incubated for 120 mins by TR-FRET assay relative to control. Further details: concentration or dose not given beside the values.
For assay [4], the system named is MDA-MB-231. The assay is described as follows: Upregulation of acetyl-H3 level in human MDA-MB-231 cells incubated for 24 hrs by Western blot analysis. The format is functional, cell-based. Conditions: dose 0.2-5 µM.
In assay [5] the test system is MDA-MB-231. The assay is described as follows: Induction of apoptosis in human MDA-MB-231 cells assessed as late apoptotic cells at 2.5 uM incubated for 48 hrs by Annexin V-FITC/PI staining based flow cytometry relative to control. Format: functional.
In assay [6] the target is Bromodomain testis-specific protein (Homo sapiens, UniProt Q58F21). The experiment in a line: Inhibition of recombinant BRDT BD1 (unknown origin) incubated for 120 mins by TR-FRET assay.
Assay [7] deals with MDA-MB-231. The assay is described as follows: Induction of apoptosis in human MDA-MB-231 cells incubated for 48 hrs by Annexin V-FITC/PI staining based flow cytometry. The format is functional, cell-based. The note with it: dose 2.5-10 µM.
Assay [8] has as its system Candida albicans. The experiment in a line: Synergistic antifungal activity against azole-resistant Candida albicans 0304103 assessed as fungal growth inhibition measured upto 24 hrs in presence of FLC by absorbance based assay. Format: functional, organism-based. The note with it: dose 4-16 µg/ml.
Another assay relates to Cryptococcus neoformans. The experiment in a line: Antifungal activity against Cryptococcus neoformans H99 assessed as fungal growth inhibition measured after 48 hrs by CLSI based micro-dilution broth method. The format is functional.
In assay [9] the test system is Candida albicans. The experiment in a line: Synergistic antifungal activity against Candida albicans 0304103 infected in ICR mouse assessed as decrease in kidney fungal load at 10 to 20 mg/kg, ip for 5 consecutive days. The format is functional, organism-based. The note with it: dose 10-20 mg/kg, time 5.0 day.
Assay [10] relates to MDA-MB-231. The experiment in a line: Induction of apoptosis in human MDA-MB-231 cells assessed as late apoptotic cells at 10 uM incubated for 48 hrs by Annexin V-FITC/PI staining based flow cytometry relative to control. The format is functional.
The target of a further assay is Histone deacetylase 3 (Homo sapiens, UniProt O15379). The assay is described as follows: Inhibition of His-tagged recombinant human HDAC3 expressed in baculovirus infected insect cells using Ac-Leu-Gly-Lys(Ac)-AMC as substrate incubated for 30 mins by fluorescence based assay. Set-up: species or system Insect cell.
Sequence of Histone deacetylase 3 (O15379 whole entry): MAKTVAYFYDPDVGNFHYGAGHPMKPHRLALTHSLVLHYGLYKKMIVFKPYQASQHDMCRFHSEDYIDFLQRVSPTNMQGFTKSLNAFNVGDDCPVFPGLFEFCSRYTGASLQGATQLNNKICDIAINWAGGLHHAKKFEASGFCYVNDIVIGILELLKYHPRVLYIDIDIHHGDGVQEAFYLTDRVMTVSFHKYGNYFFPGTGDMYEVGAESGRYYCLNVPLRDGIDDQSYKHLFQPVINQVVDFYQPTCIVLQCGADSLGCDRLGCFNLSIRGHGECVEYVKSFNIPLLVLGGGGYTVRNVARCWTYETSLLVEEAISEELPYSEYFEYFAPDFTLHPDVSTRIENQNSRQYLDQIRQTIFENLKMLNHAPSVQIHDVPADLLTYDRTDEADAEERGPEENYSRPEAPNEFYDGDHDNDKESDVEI
The test system of assay [11] is Candida albicans. The assay is described as follows: Synergistic antifungal activity FLC-resistant Candida albicans 0304103 assessed as hyphal formation at 32 ug/ml incubated for 3 hrs in presence of FLC by inverse fluorescent microscopy. Format: functional, organism-based. The note with it: dose 32.0 µg/ml.

Structures are written as SMILES. ≈ marks a conversion by molar mass, not a printed value. Calls of active or inactive are those of the source. The rule behind the calls is not given here.

Sequence of Bromodomain-containing protein 3 (Q15059 whole entry): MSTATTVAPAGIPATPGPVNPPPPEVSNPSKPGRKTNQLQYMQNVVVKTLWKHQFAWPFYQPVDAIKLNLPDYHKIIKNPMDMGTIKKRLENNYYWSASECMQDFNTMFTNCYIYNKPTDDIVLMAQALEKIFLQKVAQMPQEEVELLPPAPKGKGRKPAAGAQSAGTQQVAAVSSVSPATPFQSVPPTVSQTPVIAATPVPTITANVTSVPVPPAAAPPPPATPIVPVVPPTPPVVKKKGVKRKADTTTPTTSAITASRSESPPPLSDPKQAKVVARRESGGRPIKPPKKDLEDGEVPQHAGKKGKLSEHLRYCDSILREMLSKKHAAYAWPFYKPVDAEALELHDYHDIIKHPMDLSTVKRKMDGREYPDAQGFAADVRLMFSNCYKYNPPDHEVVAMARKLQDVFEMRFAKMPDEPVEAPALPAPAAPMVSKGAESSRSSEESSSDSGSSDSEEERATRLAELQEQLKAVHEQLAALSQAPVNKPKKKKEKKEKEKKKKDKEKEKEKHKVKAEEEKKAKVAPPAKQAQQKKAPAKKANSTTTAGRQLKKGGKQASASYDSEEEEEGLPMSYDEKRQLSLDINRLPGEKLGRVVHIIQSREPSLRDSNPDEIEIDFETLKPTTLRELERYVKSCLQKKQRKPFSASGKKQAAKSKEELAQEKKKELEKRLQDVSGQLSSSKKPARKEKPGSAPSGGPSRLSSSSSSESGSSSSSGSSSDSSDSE

As to `COc1cc2c(cc1-c1c(C)noc1C)[nH]c1nc(C)nc(NCCCCCCC(=O)NO)c12`, the IC50 in the assay with MDA-MB-231 [1] amounted to 1000 nM; in [2] it was 2590 nM; in assay [6], 1110 nM; on Histone deacetylase 3, 213 nM. In [3], the inhibition came out at 91.7%. Further, the Activity entry was “Dose-Dependent Effect” in the assay on MDA-MB-231 [4]; 8.35% with MDA-MB-231 [5]; “Dose-Dependent Effect” with MDA-MB-231 [7]; “Dose-Dependent Effect” in the assay on Candida albicans [8]; 49.38% in the assay on MDA-MB-231 [10]. Further, the MIC80 in the assay with Cryptococcus neoformans was found to be 8 µg/mL (≈ 17.1 µM). The outcome in the assay with Candida albicans [9] was Active. Moreover, the outcome in the assay with Candida albicans [11] was inactive.
As to `COc1cc2c(cc1-c1c(C)noc1C)[nH]c1ncnc(NCCCCCCC(=O)NO)c12`, the IC50 in the assay on MDA-MB-231 [1] was determined as 500 nM; in assay [2] it was 113 nM; in assay [6], 221 nM; on Histone deacetylase 3 it was 161 nM. For the same molecule, the inhibition in assay [3] came to 93.7%. Also, the Activity result in the assay on MDA-MB-231 [4] was “Dose-Dependent Effect”; in the assay with MDA-MB-231 [5] it was 25.19%; in the assay with MDA-MB-231 [7] it was “Dose-Dependent Effect”; with Candida albicans [8] it was “Dose-Dependent Effect”; in the assay with MDA-MB-231 [10], 69.85%. For the same molecule, the MIC80 with Cryptococcus neoformans amounted to 8 µg/mL (≈ 17.7 µM). Further, the outcome with Candida albicans [9] was Active. The result in the assay with Candida albicans [11] was inactive.
